Experimental findings from patent US11512107B2, “Methods for assembly of tetracyclic compounds by stereoselective C9-C10 bond formation” (Trustees of Dartmouth College, priority 2018, dated 2022) are described below.

Molecules are shown by their SMILES.

Data set [1] has as its system ERβ. The experiment in a line: Alkaline phosphatase (ALP) activity in DU-145 prostate cancer cells expressing endogenous ERβ. The class given is cell-based, human. Particulars: DU-145 cells, 24 hours, 5 μM. How it is done: FIG. 2 is a bar graph showing alkaline phosphatase activity in human DU-145 prostate cancer cells (17β-estradiol, Compound 100, and Compound 101 were evaluated at 5 μM).
The DU-145 prostate cancer cell line only expresses ERβ and can be used as a model to examine the activation of ERβ in the absence of any potential confounding signal driven by ERα. Alkaline phosphatase (ALP) expression is induced in an ER-dependent manner and has been used to characterize the activity of synthetic ER agonists and antagonists.
In order to examine the ability of Compound 100 and Compound 101 to activate ERβ in the context of a cell line expressing endogenous ERβ, DU-145 cells were treated for 24 hours with either 17β-estradiol, Compound 100, or Compound 101 and ALP activity derived from the cells was examined.

For data set [2], the system named is human neural stem cells as well as human astrocytes. In words: Cell viability of non-tumour neural cells. The data set is classed as cell-based. Conditions: at the equivalent concentration.
Data set [3] has as its system U251 and U87 cells. In words: Apoptosis by Annexin V / 7-AAD FACS analysis. The class given is cell-based, human. Particulars: U251 and U87, 24 hours. The protocol: FIG. 3C is a flow cytometric analysis of U251 and U87 co-stained with Annexin V-FITC/7-AAD after treatment with Compound 100, Compound 101, TMZ, and vehicle control DMSO (n=4).
In order to elucidate the mechanism of this cell death, glioblastoma cells treated for 24 hours with Compound 100, Compound 101, TMZ, or DMSO control were analyzed for early and late apoptosis markers (Annexin V and 7-Aminoactinomycin D) by FACS analyses. […] Additionally, over a period of five days, morphological changes in U251 and U87 cells treated with Compound 100 and Compound 101 were tracked using the Incucyte live cell imaging system.
A general note: Flow cytometry measures light scatter and fluorescence of single cells or particles in a stream.

Data set [4] addresses ERβ (Homo sapiens, UniProt Q92731). The experiment in a line: ERβ agonist assay (functional activity at estrogen receptors, FIG. 1). The data set is classed as cell-based. Particulars: for selectivity over ERα: ERβ over ERα, relative to 17β-estradiol; for EC50: read-out: EC50 ERβ agonism. The protocol:
FIG. 1 is a set of line graphs showing the results of ERβ and ERα agonist assays for Compounds 100 and 101.
Compounds 100 and 101 were evaluated for their functional activity at estrogen receptors (both ERα and ERβ). 17β-estradiol was used as a control, as it is appreciated to be a potent agonist of both ERα and ERβ.

For data set [5], the system named is U251 and U87 cells. In words: Growth inhibition and viable cell counts of glioblastoma-derived cell lines. The class given is cell-based, human. Conditions: U251 and U87, after 24 hours, versus TMZ. How it is done: FIG. 3A-3B are line graphs depicting (A) dose dependent growth inhibition of U251 and U87 cells treated with Compound 100, Compound 101, TMZ, and vehicle control DMSO (n=4) and (B) viable cell counts of U251 and U87 cells treated with Compound 100, Compound 101, TMZ, and vehicle control DMSO determined every 24 hours for 96 hours (n=4)
To determine the biological effect of Compound 100 and Compound 101, human glioblastoma-derived cell lines U251 and U87 were treated with varying concentrations of Compound 100, Compound 101, temazolomide (TMZ; a standard of care chemotherapeutic agent), or vehicle-toxicity control, dimethylsulfoxide (DMSO) used at final volumes that were identical to those used to attain all concentrations tested of Compound 100 and Compound 101.

Data set [6] in a line: Initial in vivo toxicity studies. From the text:
In comparison to 17β-estradiol, Compound 100 and Compound 101 have a unique profile for selective agonism of ERβ (FIG. 1).

Sequence of ERβ (Homo sapiens, UniProt Q92731) (Q92731 whole entry): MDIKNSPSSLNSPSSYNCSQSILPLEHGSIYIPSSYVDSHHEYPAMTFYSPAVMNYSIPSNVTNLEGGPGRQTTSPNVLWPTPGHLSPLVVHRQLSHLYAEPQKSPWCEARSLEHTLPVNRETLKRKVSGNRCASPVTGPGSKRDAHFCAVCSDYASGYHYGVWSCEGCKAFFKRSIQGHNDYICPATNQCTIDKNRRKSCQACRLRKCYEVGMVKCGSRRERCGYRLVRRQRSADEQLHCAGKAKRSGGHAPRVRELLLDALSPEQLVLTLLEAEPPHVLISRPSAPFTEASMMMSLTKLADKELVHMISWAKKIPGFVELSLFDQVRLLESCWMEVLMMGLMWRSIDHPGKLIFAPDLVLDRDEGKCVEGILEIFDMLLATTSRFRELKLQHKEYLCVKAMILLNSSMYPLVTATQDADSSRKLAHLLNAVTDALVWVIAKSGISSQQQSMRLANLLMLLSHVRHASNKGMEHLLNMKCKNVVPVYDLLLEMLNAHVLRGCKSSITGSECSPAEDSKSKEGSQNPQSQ

In the case of `C[C@]12CC[C@@H]3c4ccc(O)cc4CC[C@H]3[C@@H]1CC[C@@H]2O` [17β-estradiol], the “induction of ALP activity” value in data set [1] is “effective in inducing ALP activity”.

Usually EC50 stands for the midpoint of the concentration-response curve. On to `C[C@@]12CC[C@]3(C)C(=C1C[C@H](O)C2)CCc1cc(O)ccc13` [Compound 101, (9R,13S,16R)-9,13-dimethyl-7,9,11,12,13,15,16,17-octahydro-6H-cyclopenta[a]phenanthrene-3,16-diol], for which, in data set [2], the “cell viability of human neural stem cells and human astrocytes” value is reported as “not affected”. Besides, in data set [3], the “induction of apoptosis, fold higher than TMZ or DMSO controls” value was 7 fold. In addition, in data set [4], the “selectivity over ERα” value is reported as about 6 fold and the EC50 is 1.9 nM. Also, the “inhibition of glioma cell growth (IC50): fold lower concentration compared to TMZ” value in data set [5] is 50 fold. The in vivo toxicity entry in data set [6] is “neither compound is toxic”.

As for `C[C@]12CC[C@@]3(C)C(=C1C[C@@H](O)C2)CCc1cc(O)ccc13` [Compound 100, (9S,13R,16S)-9,13-dimethyl-7,9,11,12,13,15,16,17-octahydro-6H-cyclopenta[a]phenanthrene-3,16-diol], in data set [2], the “cell viability of human neural stem cells and human astrocytes” value is recorded as “not affected”. The “induction of apoptosis, fold higher than TMZ or DMSO controls” value in data set [3] is listed as 7 fold. For the same compound, in data set [4], the “selectivity over ERα” value is on record as over 260 fold and the EC50 stood at 0.05 nM. Further, the “inhibition of glioma cell growth (IC50): fold lower concentration compared to TMZ” value in data set [5] is given as 50 fold. Besides, in data set [6], the in vivo toxicity entry is “neither compound is toxic”.
